Test results: ChEMBL document CHEMBL3045770, “Design and synthesis of some thieno[2,3-c]pyridazine derivatives of expected anticancer activity” (2013)

Legend:
Format in all cases: functional
[1] = test system: OVCAR-5; experiment: Cytotoxicity against Homo sapiens (human) OVCAR5 cells after 48 hr by SRB assay; conditions: OVCAR-5, 48 h
[2] = test system: DU-145; experiment: Cytotoxicity against Homo sapiens (human) DU145 cells after 48 hr by SRB assay; conditions: DU-145, 48 h
[3] = test system: MDA-MB-231; experiment: Cytotoxicity against Homo sapiens (human) MDA-MB-231 cells after 48 hr by SRB assay; conditions: MDA-MB-231, 48 h
[4] = test system: 786-0; experiment: Cytotoxicity against Homo sapiens (human) 786-0 cells after 48 hr by SRB assay; conditions: 786-0, 48 h
[5] = test system: OVCAR-3; experiment: Cytotoxicity against Homo sapiens (human) OVCAR3 cells after 48 hr by SRB assay; conditions: OVCAR-3, 48 h
[6] = test system: OVCAR-4; experiment: Cytotoxicity against Homo sapiens (human) OVCAR4 cells after 48 hr by SRB assay; conditions: OVCAR-4, 48 h
[7] = test system: NCI-H322M; experiment: Cytotoxicity against Homo sapiens (human) NCI-H322M cells after 48 hr by SRB assay
[8] = test system: A498; experiment: Cytotoxicity against Homo sapiens (human) A498 cells after 48 hr by SRB assay; conditions: A498, 48 h
[9] = test system: NCI-H23; experiment: Cytotoxicity against Homo sapiens (human) NCI-H23 cells after 48 hr by SRB assay; conditions: NCI-H23, 48 h
[10] = test system: HCT-15; experiment: Cytotoxicity against Homo sapiens (human) HCT15 cells after 48 hr by SRB assay; conditions: HCT-15, 48 h
[11] = test system: RPMI-8226; experiment: Cytotoxicity against Homo sapiens (human) RPMI8226 cells after 48 hr by SRB assay; conditions: RPMI-8226, 48 h
[12] = test system: HCC 2998; experiment: Cytotoxicity against Homo sapiens (human) HCC2998 cells after 48 hr by SRB assay; conditions: HCC 2998, 48 h
[13] = test system: UACC-257; experiment: Cytotoxicity against Homo sapiens (human) UACC257 cells after 48 hr by SRB assay; conditions: UACC-257, 48 h
[14] = test system: CCRF-CEM; experiment: Cytotoxicity against Homo sapiens (human) CCRF-CEM cells after 48 hr by SRB assay
[15] = read-out: LC50 (the source's name)

For `Oc1c(-c2nnc(-c3ccc(Cl)cc3)o2)sc2nnc(-c3ccccc3)c(-c3ccccc3)c12`, the GI50 [1] was 2.18 µM, the TGI [1] was 18.3 µM and the CC50 [1, 15] was 0.0183 µM. The GI50 [2] was 6.22 µM, the TGI [2] was 18.3 µM and the GI50 [3] was 4.56 µM. For the same compound, the TGI [3] was 12.3 µM, the CC50 [3, 15] was 0.0183 µM and the GI50 [4] was 5.86 µM. The TGI [4] was 18.3 µM, the GI50 [5] was 3.77 µM and the TGI [5] was 6.1 µM. For the same compound, the GI50 [6] was 4.75 µM, the TGI [6] was 18.3 µM and the CC50 [6, 15] was 0.0183 µM. It also gave a GI50 [7] of 4.17 µM, a TGI [7] of 10.6 µM and a CC50 [7, 15] of 0.0183 µM. The GI50 [8] was 5.92 µM, the TGI [8] was 12.5 µM and the CC50 [8, 15] was 0.0183 µM. The GI50 [9] was 4.94 µM, the TGI [9] was 18.3 µM and the GI50 [10] was 2.27 µM. The TGI [10] was 18.3 µM, the GI50 [11] was 3.97 µM and the TGI [11] was 18.3 µM. For the same compound, the CC50 [11, 15] was 0.0183 µM, the GI50 [12] was 4.99 µM and the TGI [12] was 18.3 µM. The GI50 [13] was 6.16 µM, the TGI [13] was 15 µM and the CC50 [13, 15] was 0.0183 µM. The GI50 [14] was 2.88 µM and the TGI [14] was 18.3 µM.
